The results in this text go back to patent publication US20220062296A1, “COMBINATIONS OF GABAA ALPHA 5 AGONISTS AND SV2A INHIBITORS AND METHODS OF USING IN THE TREATMENT OF COGNITIVE IMPAIRMENT” (AGENEBIO, INC., priority 2020, published 2022).

What all share (type): in vivo, rat
Assay [1] has as its system aged-impaired rats. Put plainly: Water maze probe test, acute and chronic Compound 1. From the text: Rats were trained and tested in a novel water maze environment to assess the effect of the treatments. The water maze used here was housed in a different room and was surrounded by curtains with a novel set of patterns relative to the maze used for initial assessment of cognitive status. The training and testing protocol used was identical to the spatial learning-activated protocol described in Haberman et al., (2008, Proceedings of the National Academy of Sciences USA, 105, 10601-10606). The task required rats to swim to a […] escape platform at a fixed location in the presence of spatial cues for 8 training trials with an inter-trial interval of 8 min. An hour after the last training trial, rats were given a probe test in the absence of the escape platform (free swim) to assess the memory of the platform location as measured by time spent searching at the target location.
To assess the acute and chronic effects of Compound 1 treatment, rats received 15-16 days of drug injections with assessment on the water maze on the first day (acute effect) and last day (chronic effect) of treatment. Different surrounding spatial cues and escape location in the water maze were used for the initial and subsequent assessments. Compound 1 was given at 10 mg/kg using intraperitoneal injection (IP) at a volume of 1 ml/kg. […]

In assay [2] the test system is aged-impaired rats. Put plainly: Radial arm maze, Compound 1 IP alone and in combination with levetiracetam.
Assay [3] deals with aged-impaired rats. The experiment in a line: Radial arm maze with 5-hr delay, acute Compound 1 via PO. The following applies: Compound 1 10 mg/kg PO, vs vehicle. The method, then:
Food-deprived aged rats maintained at approximately 85% free-feeding weights were tested for their hippocampal-dependent memory in a radial arm maze task under varying doses of Compound 1 (a GABAA α5 receptor agonist):
The radial arm maze apparatus used consisted of eight equidistantly spaced arms. An elevated maze arm (7 cm width×75 cm length) projected from each facet of an octagonal center platform (30 cm diameter, 51.5 cm height). Clear side walls on the arms were 10 cm high and are angled at 65° to form a trough. A food well (4 cm diameter, 2 cm deep) was located at the distal end of each arm. Froot Loops™ (Kellogg Company) were used as rewards. Blocks constructed of Plexiglass™ (30 cm height×12 cm width) could be positioned to prevent entry to any arm. Numerous extra maze cues surrounding the apparatus were also provided. The rats were initially subjected to pre-training (Chappell et al., 1998). Pre-training consisted of a habituation phase, a training phase on the standard win-shift task and another training phase in which a progressively longer delay was imposed between presentation of a subset of arms designated by the experimenter (five arms available and three arms blocked) and completion of the eight-arm win-shift task (i.e., with all eight arms available).
In the habituation phase, rats were familiarized to the maze for a 10-minute session on several days. […]

The subject of assay [4] is memory-impaired aged (AI) rats. The experiment in a line: Radial arm maze task with 2-hr retention interval, acute brivaracetam or seletracetam. Particulars: doses 0.0625-4 mg/kg i.p.; repeated measures ANOVA. The method, then:
(§1) The radial arm maze experiments used acute administration of seletracetam (0-4 mg/kg), brivaracetam (0-4 mg/kg), or saline vehicle given by intraperitoneal injection (in a volume of 1 ml/kg) 30-40 min prior to test sessions.
A radial arm maze (RAM) task was used to assess effects of acute drug treatment with seletracetam and brivaracetam. This protocol allowed within-subject assessment across drugs at different doses. The radial maze consisted of eight arms projecting from each side of an octagonal center platform, with a food well located at the distal end of each arm. Plexiglas blocks could be positioned to prevent entry into any arm. Extra-maze cues were provided in the room surrounding the maze and illumination was provided by an overhead light.
Pre-training, as described in detail in Chappell et al. Neuropharmacology 37: 481-487, (1998), consisted of habituation, standard win-shift training, and win-shift training with delays interposed between information and memory test phases. Drug treatments began two days after the completion of pre-training. Three arms were blocked at the beginning of each trial (information phase). The identity and configuration of the blocked arms were varied across trials. Food-deprived rats were allowed to retrieve food reward (Kellogg's Froot Loops™ cereal) from the five unblocked arms. […]

The test system of assay [5] is aged-impaired rats. Put plainly: Water maze probe test after chronic brivaracetam (osmotic mini-pumps). Particulars: 2 mg/kg/day. The method, then: as §1
Rats were trained and tested in a novel water maze environment to assess the effect of drug treatment. The water maze used here was housed in a different building and was surrounded by curtains with a novel set of patterns relative to the maze used for initial assessment of cognitive status. The training protocol consisted of 6 trials per day for 2 days to locate a submerged escape platform. On each trial, a rat was released in the maze from one of four equally spaced starting positions around the perimeter of the pool. The starting position varied from trial to trial. […] The rat was then removed from the platform and placed in a holding cage for another 40 s before the next trial. Approximately 24 hr after the last training trial, a probe test in the absence of the escape platform was given to assess spatial memory.

For the molecule `COCc1nnc2n1Cc1c(C#Cc3cnc(OC)s3)ncn1-c1ccc(Cl)cc1-2` [Compound 1], the “time in the target quadrant of the Morris Water Maze” value with aged-impaired rats [1] (acute, Compound 1 10 mg/kg IP (first day)) is reported as “spent more time in the target quadrant”; in the assay on aged-impaired rats [1] (chronic, Compound 1 10 mg/kg IP (last day of 15-16 days)), “spent more time in the target quadrant”. Further, the “efficacy of Compound 1 on its own in the radial arm maze” value in the assay on aged-impaired rats [2] (2.5 mg/kg IP) and in the assay with aged-impaired rats [2] (5 mg/kg IP) was “subtherapeutic” each time. Also, in the assay with aged-impaired rats [3], the “number of errors in the radial arm maze” value is given as “fewer errors”.

Take `CCC[C@@H]1CC(=O)N([C@@H](CC)C(N)=O)C1` [brivaracetam, (2S)-2-[(4R)-2-oxo-4-propylpyrrolidin-1-yl]butanamide]: the “number of errors in the retention phase after the 2-hr delay” value in assay [4] is “significant effect as a function of dose”. The “spatial bias for the target quadrant compared to the other control quadrants” value in the assay with aged-impaired rats [5] (osmotic mini-pumps, started two weeks before, p=0.010) is given as “significant spatial bias for the target quadrant”. In addition, the “time in the target quadrant vs vehicle-treated rats” value in the assay on aged-impaired rats [5] (p=0.018) is on record as “significantly more time in the target quadrant”. For the same molecule, the “time in the target annulus vs vehicle-treated rats” value with aged-impaired rats [5] (p=0.036) is listed as “significantly more time in the target annulus”.

As to `CC[C@@H](C(N)=O)N1C[C@H](C=C(F)F)CC1=O` [seletracetam, (2S)-2-[(4S)-4-(2,2-difluoroethenyl)-2-oxopyrrolidin-1-yl]butanamide], the “number of errors in the retention phase after the 2-hr delay” value in assay [4] is “significant effect as a function of dose”.
